Reference: US9512176B2, “Age inhibitors” (Centre National de la Recherche Scientifique, priority 2005, dated 2016)
Entries after “also recorded” stand apart in the source; their conditions may differ. Blank lines part the entries; values can stand above or below the compound they belong to. Non-standard residues stand in square brackets, D forms with d. Residues, ends and D or L forms follow the SMILES beside them. dDap = NC[C@@H](N)C(=O)O; Dap = NC[C@H](N)C(=O)O

Legend:
[1] = tested on: EA.hy 926 cell line; assay: Growth of EA.hy 926 endothelial cells with MG scavengers and/or methylglyoxal (MTT); format: cell-based, human; details: for viability at 1000 µM: Homo sapiens, EA.hy 926, read-out: Cells + MG scavengers + Methylglyoxal (B); for Difference (B) − (A): Table 2, cells with scavenger + MG minus cells with scavenger alone; for Cells + MG scavengers (A): scavenger 1 mM, no methylglyoxal, number of cells relative to untreated control cells; for effect against suppression of cell growth by MG: scavenger + methylglyoxal; for difference between number of cells growing with compound and with MG and compound: values in brackets; for cell toxicity: text b496, compound alone
Method: The cells used for the test are from the EA.hy 926 cell line, which are endothelial cells obtained by the hybridization of human umbilical vein endothelial cells (HUVECs) with lung cancer cells (A549). The EA.hy 926 endothelial cells are incubated in Dulbecco's modified Eagle's Medium (DMEM) enriched with 10% fetal calf serum. The cells are incubated in 12-well plates. Each well initially contains 100,000 cells. Cell growth is achieved by incubating the cells in 2 ml of culture medium after adding or not adding the various potential inhibitors (1 mM) and/or methylglyoxal (600 μM) for 48 hours at 37° C. in a moist atmosphere with 5% CO2.
The number of cells is evaluated in the following way:
The cells are stained using the (4,5-dimethylthiazol-2-yl)-2,5-diphenyltetrazolium bromide (MTT) assay. MTT penetrates in the cell where it is converted into formazan. The quantity of formazan formed is proportional to the number of living cells.
The results are expressed as a relative percentage of the number of cells after treatment compared to the number of control cells without treatment [100*OD (treated cells)/OD (control cells)]. Detection is carried out by UV/visible spectrophotometry at 570 nm.
Principle: MTT (yellow) penetrates the cell and is converted into an insoluble blue compound, formazan, by cleavage of its tetrazolium rings by the mitochondrial dehydrogenase enzymes of living cells. Formazan is solubilized by isopropanol. The number of cells is proportional to the quantity of formazan formed and its absorbance.

[2] = tested on: ribonuclease A; assay: Enzymatic activity of ribonuclease A after treatment with methylglyoxal and inhibitors (methylene blue RNA staining); format: biochemical; details: ribonuclease A treated with methylglyoxal (MG) + inhibitor in equimolar quantity, 37° C.; control RNase 100, RNase + methylglyoxal 10.11%
Method: (§1) Ribonuclease A and lysozyme (10 mg/ml) are incubated in the presence of methylglyoxal (10 mM) or in the presence of methylglyoxal and one of the inhibitors according to the present invention in an equimolar quantity at 37° C. After 48 hours of incubation, the proteins are analyzed by polyacrylamide gel electrophoresis (8%-16% SDS PAGE gel).
The enzymatic activity of ribonuclease A after treatment with methylglyoxal and the various inhibitors according to the present invention is measured using the methylene blue RNA staining technique of Greiner-Stöffele et al. (Anal. Biochem. (1996) 240, 24).

[3] = tested on: ribonuclease A; assay: SDS PAGE electrophoresis of ribonuclease A incubated with methylglyoxal and inhibitor; format: biochemical; details: ribonuclease A 10 mg/ml, methylglyoxal 10 mM, inhibitor equimolar, 37° C., 48 hours
Method: as §1
The AGE inhibitors according to the present invention, namely L-DAPA-L-Leu (example 1) and L-DAPA-L-Ile (example 18), or AG (10 mM) are incubated with MG and ribonuclease A for […] at 37° C.

[4] = tested on: lysozyme; assay: SDS PAGE electrophoresis of lysozyme incubated with methylglyoxal and inhibitor; format: biochemical; details: lysozyme 10 mg/ml, methylglyoxal 10 mM, inhibitor equimolar, 37° C., 48 hours
Method: as §1

[5] = scavenger 1 mM + methylglyoxal 600 μM, 48 hours, relative to untreated control cells, MG alone 24, mean of 3 experiments
[6] = 48 hours, mean of 3 experiments

- Cells + MG scavengers (A) [1, 6]: 77%
SMILES: NC[C@H](N)C(=O)N[C@@H](Cc1ccccc1)C(=O)O [example 21, L-DAPA-L-Phe.2HCl] (H-[Dap]-Phe-OH)
- Enzymatic activity (%) [2]: 70.20%
- viability at 1000 µM [1, 5]: 71%
- Difference (B) − (A) [1]: −6
- difference between number of cells growing with compound and with MG and compound [1]: −6

- Cells + MG scavengers (A) [1, 6]: 61%
SMILES: N[C@H](C(=O)NCC(=O)O)[C@@H](N)C(=O)NCC(=O)O [example 28, (2S,3R)-DASA-1-Gly-4-Gly.2HCl]
- viability at 1000 µM [1, 5]: 54%
- Difference (B) − (A) [1]: −7

- Cells + MG scavengers (A) [1, 6]: 85%
SMILES: CC(C)[C@H](NC(=O)[C@@H](N)[C@H](N)C(=O)N[C@H](C(=O)O)C(C)C)C(=O)O [example 29, (2S,3S)-DASA-1-L-Val-4-L-Val.2HCl]
- Enzymatic activity (%) [2]: 75.09%
- viability at 1000 µM [1, 5]: 70%
- Difference (B) − (A) [1]: −15
- difference between number of cells growing with compound and with MG and compound [1]: −15
- protection from structural modifications (dimer form) caused by methylglyoxal [3]: provides protection
- protection from structural modifications (dimer form) caused by methylglyoxal [4]: provides protection

The next lines start with the compound.

SMILES: NCCC(=O)N[C@@H](Cc1cnc[nH]1)C(=O)O [Carnosine, β-alanyl-L-histidine, reference compound]
- viability at 1000 µM [1, 5]: 50%
- Difference (B) − (A) [1]: −49
- Cells + MG scavengers (A) [1, 6]: 99%
- effect against suppression of cell growth by MG [1]: less effective

SMILES: NCCCC[C@H](N)C(=O)O [L-Lys, reference compound]
- Difference (B) − (A) [1]: −38
- Cells + MG scavengers + Methylglyoxal (B) [1, 5]: 43%
- Cells + MG scavengers (A) [1, 6]: 81%

SMILES: CN(C)C(=N)N=C(N)N [Metformin, reference compound]
- viability at 1000 µM [1, 5]: 45%
- Difference (B) − (A) [1]: −46
- toxicity with respect to EA cells ([1]; compound alone, 1 mM): extremely low toxicity
- Cells + MG scavengers (A) [1, 6]: 91%
- effect against suppression of cell growth by MG [1]: less effective; also recorded: weak scavenger

SMILES: CC(C)C[C@H](NC(=O)[C@@H](N)CN)C(=O)O [example 3, L-DAPA-L-Leu.2TFA] (H-[Dap]-Leu-OH)
- difference between number of cells growing with compound and with MG and compound [1]: −18

SMILES: C[C@@H](NC(=O)[C@H](N)CN)C(=O)O [example 8, D-DAPA-D-Ala.2HCl] (H-[dDap]-[dA]-OH)
- Enzymatic activity (%) [2]: 87.37%
- viability at 1000 µM [1, 5]: 71%
- Difference (B) − (A) [1]: −6
- Cells + MG scavengers (A) [1, 6]: 77%
- cell toxicity [1]: 39%
- difference between number of cells growing with compound and with MG and compound [1]: +1
- protection from structural modifications (dimer form) caused by methylglyoxal [3]: provides protection
- protection from structural modifications (dimer form) caused by methylglyoxal [4]: provides protection

SMILES: CC(C)C[C@H](NC(=O)[C@@H](N)[C@H](C)N)C(=O)O [example 12, (2S,3S)-DABA-L-Leu.2HCl]
- Enzymatic activity (%) [2]: 80.97%
- viability at 1000 µM [1, 5]: 73%
- Difference (B) − (A) [1]: −4
- Cells + MG scavengers (A) [1, 6]: 77%
- difference between number of cells growing with compound and with MG and compound [1]: −4
- protection from structural modifications (dimer form) caused by methylglyoxal [3]: provides protection
- protection from structural modifications (dimer form) caused by methylglyoxal [4]: provides protection

SMILES: CC(C)C[C@H](NC(=S)[C@@H](N)CN)C(=O)O [example 16, L-DAPA-L-(S)-Leu.2HCl]
- Enzymatic activity (%) [2]: 75.69%
- viability at 1000 µM [1, 5]: 74%
- Difference (B) − (A) [1]: +3
- Cells + MG scavengers (A) [1, 6]: 71%

SMILES: NC[C@H](N)C(=O)NCC(=O)O [example 17, L-DAPA-Gly.2HCl] (H-[Dap]-Gly-OH)
- Enzymatic activity (%) [2]: 85.61%
- viability at 1000 µM [1, 5]: 50%
- Difference (B) − (A) [1]: −4
- Cells + MG scavengers (A) [1, 6]: 54%
- cell toxicity [1]: 43%
- difference between number of cells growing with compound and with MG and compound [1]: +3
- protection from structural modifications (dimer form) caused by methylglyoxal [3]: provides protection
- protection from structural modifications (dimer form) caused by methylglyoxal [4]: provides protection
